Patent US7642270B2, “5-oxo-5,8-dihydro-pyrido-pyrimidine as inhibitors of c-fms kinase” (Janssen Pharmaceutica N.V., priority 2005, dated 2010)

Target: c-fms (Homo sapiens, UniProt P07333)
Experiment: c-fms autophosphorylation, fluorescence polarization competition immunoassay
Format: biochemical
Details: 10 nM c-fms, 1 mM ATP, 5 mM MgCl2, 45 min room temperature; averages of three independent measurements; read-out: c-fms Autophosphorylation IC50
Experimental: Autophosphorylation, Fluorescence Polarization Competition Immunoassay
The assay buffer used was 100 mM 4-(2-hydroxyethyl)piperazine 1-ethanesulfonic acid (HEPES), pH 7.5, 1 mM 1,4-dithio-DL-threitol (DTT), 0.01% (v/v) Tween-20. Compounds were diluted in assay buffer containing 4% dimethylsulfoxide (DMSO) just prior to the assay. […] The kinase reaction was initiated by adding 2 μL of 5 mM ATP (Sigma) in assay buffer. The final concentrations in the assay were 10 nM c-fms, 1 mM ATP, 5 mM MgCl2, 2% DMSO. Control reactions were ran in each plate: in positive and negative control wells, assay buffer (made 4% in DMSO) was substituted for the compound; in addition, positive control wells received 1.2 μL of 50 mM ethylenediaminetetraaceticacid (EDTA).
The plates were incubated at room temperature for 45 min. At the end of the incubation, the reaction was quenched with 1.2 μL of 50 mM EDTA (EDTA was not added to the positive control wells at this point; see above). Following a 5-min incubation, each well received 10 μL of a 1:1:3 mixture of anti-phosphotyrosine antibody, 10×, PTK green tracer, 10× (vortexed), FP dilution buffer, respectively (all from PanVera, cat. # P2837). The plate was covered, incubated for 30 min at room temperature and the fluorescence polarization was read on the Analyst.
The IC50 values shown in Table 1 are averages of three independent measurements.

c-fms, sequence (P07333 20-972): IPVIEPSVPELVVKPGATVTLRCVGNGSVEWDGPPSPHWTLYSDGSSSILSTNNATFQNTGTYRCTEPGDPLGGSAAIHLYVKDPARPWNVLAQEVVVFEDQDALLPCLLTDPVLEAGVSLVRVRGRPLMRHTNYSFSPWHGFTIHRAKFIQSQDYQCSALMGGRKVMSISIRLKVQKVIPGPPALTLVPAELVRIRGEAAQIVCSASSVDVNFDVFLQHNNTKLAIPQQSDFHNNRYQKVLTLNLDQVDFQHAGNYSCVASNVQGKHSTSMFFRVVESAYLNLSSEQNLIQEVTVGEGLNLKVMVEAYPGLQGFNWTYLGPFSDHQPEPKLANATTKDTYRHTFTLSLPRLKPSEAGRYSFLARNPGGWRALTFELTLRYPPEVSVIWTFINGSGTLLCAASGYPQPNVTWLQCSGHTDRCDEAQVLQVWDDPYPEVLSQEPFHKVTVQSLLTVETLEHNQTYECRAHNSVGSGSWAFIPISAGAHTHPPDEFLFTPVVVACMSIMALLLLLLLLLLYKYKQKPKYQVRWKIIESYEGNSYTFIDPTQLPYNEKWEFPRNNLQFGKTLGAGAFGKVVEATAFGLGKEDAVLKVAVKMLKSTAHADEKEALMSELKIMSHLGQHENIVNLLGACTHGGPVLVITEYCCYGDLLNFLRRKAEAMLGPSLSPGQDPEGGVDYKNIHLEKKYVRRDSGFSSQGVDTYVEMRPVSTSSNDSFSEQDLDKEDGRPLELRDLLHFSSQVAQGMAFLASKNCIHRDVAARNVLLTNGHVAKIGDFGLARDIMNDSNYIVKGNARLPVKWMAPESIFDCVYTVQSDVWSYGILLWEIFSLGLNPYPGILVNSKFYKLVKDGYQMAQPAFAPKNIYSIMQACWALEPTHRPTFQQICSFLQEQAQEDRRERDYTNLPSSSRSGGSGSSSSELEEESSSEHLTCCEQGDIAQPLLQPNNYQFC

IC50 [nM]	Compound
74	CNC(=O)c1cn(-c2ccc3c(c2)CCC3)c2nc(Nc3cccc(C(=O)N(C)C)c3)ncc2c1=O [Cpd 80, 2-(3-Dimethylcarbamoyl-phenylamino)-8-indan-5-yl-5-oxo-5,8-dihydro-pyrido[2,3-d]pyrimidine-6-carboxylic acid methylamide]
56	CN1CCN(c2ccc(Nc3cc4c(cn3)c(=O)c(C(N)=O)cn4-c3ccc4c(c3)CCC4)cc2)CC1 [Cpd 26, 1-Indan-5-yl-7-[4-(4-methyl-piperazin-1-yl)-phenylamino]-4-oxo-1,4-dihydro-[1,6]naphthyridine-3-carboxylic acid amide]
300	CCNC(=O)c1cn(C2CC3CCC2C3)c2nc(Nc3ccc(N4CCN(C)CC4)cc3)ncc2c1=O (stereo not drawn) [Cpd 83, 8-Bicyclo[2.2.1]hept-2-yl-2-[4-(4-methyl-piperazin-1-yl)-phenylamino]-5-oxo-5,8-dihydro-pyrido[2,3-d]pyrimidine-6-carboxylic acid ethylamide]
80	CNC(=O)c1cn(-c2ccc3c(c2)CCC3)c2nc(Nc3ccc(CCS(=O)(=O)N4CCOCC4)cc3)ncc2c1=O [Cpd 35, 8-Indan-5-yl-2-{4-[2-(morpholine-4-sulfonyl)-ethyl]-phenylamino}-5-oxo-5,8-dihydro-pyrido[2,3-d]pyrimidine-6-carboxylic acid methyl amide]
16	CCNC(=O)c1cn(-c2ccc3c(c2)CCC3)c2nc(Nc3ccc(N4CCNCC4)cc3)ncc2c1=O [Cpd 42, 8-indan-5-yl-5-oxo-2-(4-piperazin-1-yl-phenylamino)-5,8-dihydro-pyrido[2,3-d]pyrimidine-6-carboxylic acid ethyl amide]
32	CCNC(=O)c1cn(-c2ccc3c(c2)CCC3)c2nc(Nc3ccc(CN4CCN(C)CC4)cc3)ncc2c1=O [Cpd 84, 8-Indan-5-yl-2-[4-(4-methyl-piperazin-1-ylmethyl)-phenylamino]-5-oxo-5,8-dihydro-pyrido[2,3-d]pyrimidine-6-carboxylic acid ethylamide]
140	CCNC(=O)c1cn(-c2ccc3c(c2)CCC3)c2nc(Nc3cccc(CN(C)C)c3)ncc2c1=O [Cpd 78, 2-(3-Dimethylaminomethyl-phenylamino)-8-indan-5-yl-5-oxo-5,8-dihydro-pyrido[2,3-d]pyrimidine-6-carboxylic acid ethylamide]
35	CN1CCN(c2ccc(Nc3ncc4c(=O)c(C(N)=O)cn(C5CCCCC5)c4n3)cc2)CC1 [Cpd 60, 8-Cyclohexyl-2-[4-(4-methyl-piperazin-1-yl)-phenylamino]-5-oxo-5,8-dihydro-pyrido[2,3-d]pyrimidine-6-carboxylic acid amide]
190	CCNC(=O)c1cn(C2CCCCC2)c2nc(Nc3ccc(N4CCN(C)CC4)cc3)ncc2c1=O [Cpd 62, 8-Cyclohexyl-2-[4-(4-methyl-piperazin-1-yl)-phenylamino]-5-oxo-5,8-dihydro-pyrido[2,3-d]pyrimidine-6-carboxylic acid ethyl amide]
26	NC(=O)c1cn(C2CCCCC2)c2nc(Nc3ccc(CCN4CCOCC4)cc3)ncc2c1=O [Cpd 57, 8-Cyclohexyl-2-[4-(2-morpholin-4-yl-ethyl)-phenylamino]-5-oxo-5,8-dihydro-pyrido[2,3-d]pyrimidine-6-carboxylic acid amide]
32	CCNC(=O)c1cn(-c2ccc3c(c2)CCC3)c2nc(Nc3ccc(CCN4CCN(C)CC4)cc3)ncc2c1=O [Cpd 48, 8-Indan-5-yl-2-{4-[2-(4-methyl-piperazin-1-yl)-ethyl]-phenylamino}-5-oxo-5,8-dihydro-pyrido[2,3-d]pyrimidine-6-carboxylic acid ethyl amide]
31	CNC(=O)c1cn(-c2ccc3c(c2)CCC3)c2nc(Nc3ccc(N4CCN(C)CC4)cc3)ncc2c1=O [Cpd 8, 8-indan-5-yl-2-[4-(4-methyl-piperazin-1-yl)-phenylamino]-5-oxo-5,8-dihydro-pyrido[2,3-d]pyrimidine-6-carboxylic acid methylamide]
33	CCNC(=O)c1cn(-c2ccc3c(c2)CCC3)c2nc(Nc3ccc(C[C@H]4COC(=O)N4)cc3)ncc2c1=O [Cpd 32, (4S)-8-Indan-5-yl-5-oxo-2-[4-(2-oxo-oxazolidin-4-ylmethyl)-phenylamino]-5,8-dihydro-pyrido[2,3-d]pyrimidine-6-carboxylic acid ethyl amide]
590	CCOC(=O)c1cn(-c2ccc3c(c2)CCC3)c2nc(Nc3cccc(N(C)C)c3)ncc2c1=O [Cpd 5, 2-(3-Dimethylamino-phenylamino)-8-indan-5-yl-5-oxo-5,8-dihydro-pyrido[2,3-d]pyrimidine-6-carboxylic acid ethyl ester]
20	CNC(=O)c1cn(-c2ccc3c(c2)CCC3)c2nc(Nc3ccc(C[C@H]4COC(=O)N4)cc3)ncc2c1=O [Cpd 31, (4S)-8-Indan-5-yl-5-oxo-2-[4-(2-oxo-oxazolidin-4-ylmethyl)-phenylamino]-5,8-dihydro-pyrido[2,3-d]pyrimidine-6-carboxylic acid methyl amide]
> 10000	CCOC(=O)c1cn(-c2ccc3c(c2)CCC3)c2nc(Nc3ccc(N(C)C)cc3)ncc2c1=O [Cpd 4, 2-(4-Dimethylamino-phenylamino)-8-indan-5-yl-5-oxo-5,8-dihydro-pyrido[2,3-d]pyrimidine-6-carboxylic acid ethyl ester]
190	CCNC(=O)c1cn(C2CCCCC2)c2nc(Nc3ccc(CCN4CCOCC4)cc3)ncc2c1=O [Cpd 59, 8-Cyclohexyl-2-[4-(2-morpholin-4-yl-ethyl)-phenylamino]-5-oxo-5,8-dihydro-pyrido[2,3-d]pyrimidine-6-carboxylic acid ethyl amide]
4100	CN1CCN(CC(=O)N2CCC(c3ccc(Nc4ncc5c(=O)c(C(N)=O)cn(-c6ccc7c(c6)CCC7)c5n4)cc3)CC2)CC1 [Cpd 72, 8-Indan-5-yl-2-(4-{1-[2-(4-methyl-piperazin-1-yl)-acetyl]-piperidin-4-yl}-phenylamino)-5-oxo-5,8-dihydro-pyrido[2,3-d]pyrimidine-6-carboxylic acid amide]
2900	CCOC(=O)c1cn(-c2ccc3c(c2)CCC3)c2nc(Nc3ccc(N4CCOCC4)cc3)ncc2c1=O [Cpd 3, 8-Indan-5-yl-2-(4-morpholin-4-yl-phenylamino)-5-oxo-5,8-dihydro-pyrido[2,3-d]pyrimidine-6-carboxylic acid ethyl ester]
62	CN(C)C(=O)c1cccc(Nc2ncc3c(=O)c(C(N)=O)cn(-c4ccc5c(c4)CCC5)c3n2)c1 [Cpd 79, 2-(3-Dimethylcarbamoyl-phenylamino)-8-indan-5-yl-5-oxo-5,8-dihydro-pyrido[2,3-d]pyrimidine-6-carboxylic acid amide]
120	NC(=O)c1cn(C2CCCCC2)c2nc(Nc3ccc(CCS(=O)(=O)N4CCOCC4)cc3)ncc2c1=O [Cpd 67, 8-Cyclohexyl-2-{4-[2-(morpholine-4-sulfonyl)-ethyl]-phenylamino}-5-oxo-5,8-dihydro-pyrido[2,3-d]pyrimidine-6-carboxylic acid amide]
130	CN(C)CC(=O)N1CCC(c2ccc(Nc3ncc4c(=O)c(C(N)=O)cn(C5CCCCC5)c4n3)cc2)CC1 [Cpd 68, 8-Cyclohexyl-2-{4-[1-(2-dimethylamino-acetyl)-piperidin-4-yl]-phenylamino}-5-oxo-5,8-dihydro-pyrido[2,3-d]pyrimidine-6-carboxylic acid amide]
81	CN1CCN(c2ccc(Nc3ncc4c(=O)c(C(N)=O)cn(C5CC6CCC5C6)c4n3)cc2)CC1 (stereo not drawn) [Cpd 82, 8-Bicyclo[2.2.1]hept-2-yl-2-[4-(4-methyl-piperazin-1-yl)-phenylamino]-5-oxo-5,8-dihydro-pyrido[2,3-d]pyrimidine-6-carboxylic acid amide]
120	CNC(=O)c1cn(C2CCCCC2)c2nc(Nc3ccc(CCN4CCOCC4)cc3)ncc2c1=O [Cpd 58, 8-Cyclohexyl-2-[4-(2-morpholin-4-yl-ethyl)-phenylamino]-5-oxo-5,8-dihydro-pyrido[2,3-d]pyrimidine-6-carboxylic acid methyl amide]
7400	CN(C)CC(=O)N1CCC(c2cccc(Nc3ncc4c(=O)c(C(N)=O)cn(-c5ccc6c(c5)CCC6)c4n3)c2)CC1 [Cpd 71, 2-{3-[1-(2-Dimethylamino-acetyl)-piperidin-4-yl]-phenylamino}-8-indan-5-yl-5-oxo-5,8-dihydro-pyrido[2,3-d]pyrimidine-6-carboxylic acid amide]
100	CNC(=O)c1cn(-c2ccc3c(c2)CCC3)c2nc(Nc3ccc(CCS(=O)(=O)NC(C)C)cc3)ncc2c1=O [Cpd 33, 8-Indan-5-yl-2-[4-(2-isopropylsulfamoyl-ethyl)-phenylamino]-5-oxo-5,8-dihydro-pyrido[2,3-d]pyrimidine-6-carboxylic acid methyl amide]

Compound	IC50 [nM]
CNC(=O)c1cn(Cc2ccccc2)c2nc(Nc3ccc(N4CCN(C)CC4)cc3)ncc2c1=O [Cpd 85, 8-Benzyl-2-[4-(4-methyl-piperazin-1-yl)-phenylamino]-5-oxo-5,8-dihydro-pyrido[2,3-d]pyrimidine-6-carboxylic acid methylamide]	420
